Like-named read-outs stand apart in the source and are kept apart here.
Test system: IL-1β production in PMA-differentiated THP-1 cells
Test: IL-1β production in PMA-differentiated THP-1 cells stimulated with gramicidin (hTHP-1 assay containing 2% fetal bovine serum; Procedures 1-3)
Assay type: cell-based, human
Conditions: read-out: hTHP-1 IC50 (Average IC50 of compounds in hTHP-1 assay)
Protocol: The following protocol is suitable for testing the activity of the compounds disclosed herein.
Procedure 1: IL-1β Production in PMA-Differentiated THP-1 Cells Stimulated with Gramicidin
THP-1 cells were purchased from the American Type Culture Collection and sub-cultured according to instructions from the supplier. Cells were cultured in complete RPMI 1640 (containing 10% heat inactivated FBS, penicillin (100 units/ml) and streptomycin (100 μg/ml)), and maintained in log phase prior to experimental setup. Prior to the experiment, compounds were dissolved in dimethyl sulfoxide (DMSO) to generate a 30 mM stock. The compound stock was first pre-diluted in DMSO to 3, 0.34, 0.042 and 0.0083 mM intermediate concentrations and subsequently spotted using Echo550 liquid handler into an empty 384-well assay plate to achieve desired final concentration (e.g. 100, 33, 11, 3.7, 1.2, 0.41, 0.14, 0.046, 0.015, 0.0051, 0.0017 μM). DMSO was backfilled in the plate to achieve a final DMSO assay concentration of 0.37%. The plate was then sealed and stored at room temperature until required.
THP-1 cells were treated with PMA (Phorbol 12-myristate 13-acetate) (20 ng/ml) for 16-18 hours. On the day of the experiment the media was removed and adherent cells were detached with trypsin for 5 minutes. Cells were then harvested, washed with complete RPMI 1640, spun down, and resuspended in RPMI 1640 (containing 2% heat inactivated FBS, penicillin (100 units/ml) and streptomycin (100 μg/ml). The cells were plated in the 384-well assay plate containing the spotted compounds at a density of 50,000 cells/well (final assay volume 50 μl). Cells were incubated with compounds for 1 hour and then stimulated with gramicidin (5 μM) (Enzo) for 2 hours. Plates were then centrifuged at 340 g for 5 min. Cell free supernatant (40 μL) was collected using a 96-channel PlateMaster (Gilson) and the production of IL-1β was evaluated by HTRF (cisbio). The plates were incubated for 18 h at 4° C. and read using the preset HTRF program (donor emission at 620 nm, acceptor emission at 668 nm) of the SpectraMax i3x spectrophotometer (Molecular Devices, software SoftMax 6). A vehicle only control and a dose titration of CRID3 (100-0.0017 μM) were run concurrently with each experiment.
Procedure 2: IL-1β Production in PMA-Differentiated THP-1 Cells Stimulated with Gramicidin
THP-1 cells were purchased from the American Type Culture Collection and sub-cultured according to instructions from the supplier. Prior to experiments, cells were cultured in complete RPMI 1640 (containing 10% heat inactivated FBS, penicillin (100 units/ml) and streptomycin (100 μg/ml)), and maintained in log phase prior to experimental setup. Prior to the experiment THP-1 were treated with PMA (Phorbol 12-myristate 13-acetate) (20 ng/ml) for 16-18 hours. Compounds were dissolved in dimethyl sulfoxide (DMSO) to generate a 30 mM stock. On the day of the experiment the media was removed and adherent cells were detached with trypsin for 5 minutes. Cells were then harvested, washed with complete RPMI 1640, spun down, resuspended in RPMI 1640 (containing 2% heat inactivated FBS, penicillin (100 units/ml) and streptomycin (100 μg/ml). The cells were plated in a 384-well plate at a density of 50,000 cells/well (final assay volume 50 μl). Compounds were first dissolved in assay medium to obtain a 5× top concentration of 500 μM. 10 step dilutions (1:3) were then undertaken in assay medium containing 1.67% DMSO. 5× compound solutions were added to the culture medium to achieve desired final concentration (e.g. 100, 33, 11, 3.7, 1.2, 0.41, 0.14, 0.046, 0.015, 0.0051, 0.0017 μM). Final DMSO concentration was at 0.37%. Cells were incubated with compounds for 1 hour and then stimulated with gramicidin (5 μM) (Enzo) for 2 hours. Plates were then centrifuged at 340 g for 5 min. Cell free supernatant (40 μL) was collected using a 96-channel PlateMaster (Gilson) and the production of IL-1β was evaluated by HTRF (cisbio). […]

[1] = hTHP-1 assay containing 2% fetal bovine serum, class symbols
[2] = Homo sapiens, THP-1, hTHP-1 assay containing 2% fetal bovine serum, class symbols
[3] = Homo sapiens, THP-1, hTHP-1 assay containing 2% fetal bovine serum, given as numeric bound

Row | IC50 [1] | Structure (SMILES) | further results
1 | 40 to 200 nM | CC(C)c1cc(OC(F)F)cc(C(C)C)c1CC(=O)N=S(N)(=O)c1sc(C(C)(C)O)cc1F (single isomer, unassigned) [Example 76, (S)- or (R)-2-(4-(difluoromethoxy)-2,6-diisopropylphenyl)-N-(3-fluoro-5-(2-hydroxypropan-2-yl)thiophen-2-ylsulfonimidoyl)acetamide] | –
2 | 200 to 1000 nM | CCc1cc(OC(F)F)cc(C(C)C)c1CC(=O)N=S(N)(=O)c1sc(C(C)(C)O)cc1F (single isomer, unassigned) [Example 78, (S)- or (R)-2-(4-(difluoromethoxy)-2-ethyl-6-isopropylphenyl)-N-(3-fluoro-5-(2-hydroxypropan-2-yl)thiophen-2-ylsulfonimidoyl)acetamide] | –
3 | – | CC(C)c1cc(C#N)cc(C(C)C)c1CC(=O)N=S(N)(=O)c1ccc(C(C)(C)O)cc1Cl (single isomer, unassigned) [Example 155, (R) or (S)-N-(amino(2-chloro-4-(2-hydroxypropan-2-yl)phenyl)(oxo)-λ^6-sulfaneylidene)-2-(4-cyano-2,6-diisopropylphenyl)acetamide] | IC50 [2]: 200 to 1000 nM
4 | 200 to 1000 nM | CC(C)c1cc(C#N)cc(C(C)C)c1CC(=O)N=S(N)(=O)c1ccc(C(C)(C)O)cc1Cl (single isomer, unassigned) [Example 156, (S) or (R)-N-(amino(2-chloro-4-(2-hydroxypropan-2-yl)phenyl)(oxo)-λ^6-sulfaneylidene)-2-(4-cyano-2,6-diisopropylphenyl)acetamide] | –
5 | 40 to 200 nM | CC(C)c1ccc(F)c(C(C)C)c1CC(=O)N=S(N)(=O)c1cc(C(C)(C)O)cs1 (single isomer, unassigned) [Example 159, (R) or (S)-N-(amino(4-(2-hydroxypropan-2-yl)thiophen-2-yl)(oxo)-λ^6-sulfaneylidene)-2-(3-fluoro-2,6-diisopropylphenyl)acetamide] | –
6 | 40 to 200 nM | CC(C)c1cc(-c2ccc3c(c2)OC(F)(F)O3)cc(C(C)C)c1CC(=O)N=S(N)(=O)c1ncc(C(C)(C)O)s1 (single isomer, unassigned) [Example 166, (R) or (S)-N-(amino(5-(2-hydroxypropan-2-yl)thiazol-2-yl)(oxo)-λ^6-sulfaneylidene)-2-(4-(2,2-difuorobenzo[d][1,3]dioxol-5-yl)-2,6-diisopropylphenyl)acetamide] | –
7 | 200 to 1000 nM | Cc1ccc(-c2cc(C(C)C)c(CC(=O)N=S(N)(=O)c3ncc(C(C)(C)O)s3)c(C(C)C)c2)cc1C (single isomer, unassigned) [Example 168, (R) or (S)-N-(amino(5-(2-hydroxypropan-2-yl)thiazol-2-yl)(oxo)-λ^6-sulfaneylidene)-2-(3,5-diisopropyl-3′,4′-dimethyl-[1,1′-biphenyl]-4-yl)acetamide] | –
8 | 200 to 1000 nM | CC(C)c1cc(-c2ccc(Cl)c(Cl)c2)cc(C(C)C)c1CC(=O)N=S(N)(=O)c1ncc(C(C)(C)O)s1 (single isomer, unassigned) [Example 170, (R) or (S)-N-(amino(5-(2-hydroxypropan-2-yl)thiazol-2-yl)(oxo)-λ^6-sulfaneylidene)-2-(3′,4′-dichloro-3,5-diisopropyl-[1,1′-biphenyl]-4-yl)acetamide] | –
9 | 200 to 1000 nM | CC(C)c1cc(-c2ccc3c(c2)COCC3)cc(C(C)C)c1CC(=O)N=S(N)(=O)c1cnc(C(C)(C)O)s1 (single isomer, unassigned) [Example 171, (R) or (S)-N-(amino(2-(2-hydroxypropan-2-yl)thiazol-5-yl)(oxo)-λ^6-sulfaneylidene)-2-(4-(isochroman-7-yl)-2,6-diisopropylphenyl)acetamide] | –
10 | 200 to 1000 nM | CC(C)c1ccc(F)c(C(C)C)c1CC(=O)N=S(N)(=O)c1ccc(C(C)(C)O)s1 (single isomer, unassigned) [Example 176, (R) or (S)-N-(amino(5-(2-hydroxypropan-2-yl)thiophen-2-yl)(oxo)-λ^6-sulfaneylidene)-2-(3-fluoro-2,6-diisopropylphenyl)acetamide] | –
11 | 200 to 1000 nM | CC(C)c1ccc(C#N)c(C(C)C)c1CC(=O)N=S(N)(=O)c1nc(C(C)(C)O)cs1 (single isomer, unassigned) [Example 179, (R) or (S)-N-(amino(4-(2-hydroxypropan-2-yl)thiazol-2-yl)(oxo)-λ^6-sulfaneylidene)-2-(3-cyano-2,6-diisopropylphenyl)acetamide] | –
12 | 40 to 200 nM | COCc1cc(C(C)C)c(CC(=O)N=S(N)(=O)c2ncc(C(C)(C)O)s2)c(C(C)C)c1 (single isomer, unassigned) [Example 185, (R) or (S)-N-(amino(5-(2-hydroxypropan-2-yl)thiazol-2-yl)(oxo)-λ^6-sulfaneylidene)-2-(2,6-diisopropyl-4-(methoxymethyl)phenyl) acetamide] | –
13 | – | CC(C)c1cc2c(c(C(C)C)c1CC(=O)N=S(N)(=O)c1ccc(CN(C)C)cc1)COC2 (single isomer, unassigned) [Example 191, (R) or (S)-N-(amino(4-((dimethylamino)methyl)phenyl) (oxo)-λ^6-sulfaneylidene)-2-(4,6-diisopropyl-1,3-dihydroisobenzofuran-5-yl)acetamide] | IC50 [2]: 1000 to 5000 nM
14 | – | CC(C)c1cc2c(c(C(C)C)c1CC(=O)N=S(N)(=O)c1ccc(CN(C)C)cc1)COC2 (single isomer, unassigned) [Example 192, (S) or (R)-N-(amino(4-((dimethylamino)methyl)phenyl) (oxo)-λ^6-sulfaneylidene)-2-(4,6-diisopropyl-1,3-dihydroisobenzofuran-5-yl)acetamide] | IC50 [3]: > 30000 nM
15 | – | CC(C)c1cc(F)cc(C(C)C)c1C(C)C(=O)N=S(N)(=O)c1cnc(C(C)(C)O)s1 (single isomer, unassigned) [Example 194, (R, S) or (R, R)-N-(amino(2-(2-hydroxypropan-2-yl)thiazol-5-yl)(oxo)-λ^6-sulfaneylidene)-2-(4-fluoro-2,6-diisopropylphenyl) propanamide] | IC50 [2]: 5000 to 30000 nM
16 | – | CC(C)c1cc(F)cc(C(C)C)c1C(C)C(=O)N=S(N)(=O)c1cnc(C(C)(C)O)s1 (single isomer, unassigned) [Example 195, (R, R) or (R, S)-N-(amino(2-(2-hydroxypropan-2-yl)thiazol-5-yl)(oxo)-λ^6-sulfaneylidene)-2-(4-fluoro-2,6-diisopropylphenyl) propanamide] | IC50 [3]: > 30000 nM
17 | – | CC(C)(O)c1ncc(S(N)(=O)=NC(=O)Cc2c(C3CC3)cc(F)cc2C(F)(F)F)s1 (single isomer, unassigned) [Example 196, (R) or (S)-N-(amino(2-(2-hydroxypropan-2-yl)thiazol-5-yl)(oxo)-λ^6-sulfaneylidene)-2-(2-cyclopropyl-4-fluoro-6-(trifluoromethyl)phenyl) acetamide] | IC50 [2]: 5000 to 30000 nM
18 | – | CC(C)(O)c1ncc(S(N)(=O)=NC(=O)Cc2c(C3CC3)cc(F)cc2C(F)(F)F)s1 (single isomer, unassigned) [Example 197, (S) or (R)-N-(amino(2-(2-hydroxypropan-2-yl)thiazol-5-yl)(oxo)-λ^6-sulfaneylidene)-2-(2-cyclopropyl-4-fluoro-6-(trifluoromethyl)phenyl) acetamide] | IC50 [3]: > 30000 nM
